From patent US7960402B2, “Carbamoyl-substituted spiro derivative” (Banyu Pharmaceutical Co., Ltd., priority 2004, dated 2011) come the findings set out here.

The target of the test is T1, human histamine H3 receptor (Homo sapiens, UniProt Q9Y5N1).
T1 construct: expressed in transfected cells; host or cells: HEK293 and CHO-K1
The test can be described thus: Test for Inhibition of Bonding of Histamine Analog. Format: binding. The following applies: for IC50: membrane specimen from histamine H3 receptor-expressed cells, [3H]N-α-methylhistamine, 25° C., 2 hours, read-out: 50% inhibition concentration (IC50 value) of the test compound to a specific N-alpha-methylhistamine bond; for inhibition of the bond of N-alpha-methylhistamine (histamine analog) to a histamine H3 receptor: summary in words of the IC50 results. From the text: A cDNA sequence coding for human histamine H3 receptor [refer to WO 00/39164] was cloned to an expression vector pCR2.1, pEF1× (manufactured by Invitrogen) and pCI-neo (manufactured by Promega). The resulting expression vector was transfected to host cells HEK293 and CHO-K1 (American Type Culture Collection) by a cationic lipid method [refer to Proceedings of the National Academy of Sciences, the United States of America, volume 84, page 7413 (1987)] to give histamine H3 receptor-expressed cells.
A membrane specimen prepared from the cells where histamine H3 receptor was expressed was incubated at 25° C. for 2 hours in an assay buffer (50 mM Tris buffer, pH 7.4) together with a test compound (the compound of Example 1) and 20,000 cpm of [3H]N-α-methylhistamine (manufactured by NEN) and then filtered using a glass filter GF/C. After washing with a 50 mM Tris buffer of pH 7.4, radiation activity on the glass filter was determined. Non-specific bond was measured in the presence of a 10 μM thioperamide (manufactured by Sigam) to determine a 50% inhibition concentration (IC50 value) of the test compound to a specific N-alpha-methylhistamine bond [refer to Molecular Pharmacology, volume 55, page 1101 (1999)].

T1 sequence (Q9Y5N1 whole entry): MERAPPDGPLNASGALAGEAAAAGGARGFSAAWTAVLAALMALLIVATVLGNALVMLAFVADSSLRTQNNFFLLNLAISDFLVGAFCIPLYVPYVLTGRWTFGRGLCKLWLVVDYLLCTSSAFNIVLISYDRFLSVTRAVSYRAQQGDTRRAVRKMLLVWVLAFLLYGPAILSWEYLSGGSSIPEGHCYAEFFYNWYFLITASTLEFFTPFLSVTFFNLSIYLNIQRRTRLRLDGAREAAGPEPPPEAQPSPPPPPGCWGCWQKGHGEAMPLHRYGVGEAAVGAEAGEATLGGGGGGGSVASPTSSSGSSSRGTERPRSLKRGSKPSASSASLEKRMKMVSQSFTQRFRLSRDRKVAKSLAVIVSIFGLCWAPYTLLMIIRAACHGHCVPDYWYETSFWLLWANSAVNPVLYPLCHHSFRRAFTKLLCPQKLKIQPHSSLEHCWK

With `CN(CCN1CCCCC1)C(=O)[C@H]1CC[C@@]2(CC1)OC(=O)c1cc(F)ccc12.Cl` [Example 10, trans-5′-fluoro-3′-oxo-N-methyl-N-(2-piperidin-1-ylethyl)-spiro[cyclohexane-1,1′-(3′H)-isobenzofuran]-4-carboxamide hydrochloride], the IC50 was 4 nM and the “inhibition of the bond of N-alpha-methylhistamine (histamine analog) to a histamine H3 receptor” value is recorded as “strongly inhibited”.
With `CN(CCN1CCCCC1)C(=O)[C@H]1CC[C@@]2(CC1)OC(=O)c1cc(-c3ccccn3)ccc12` [Example 58, trans-5′-(Pyridin-2-yl)-3′-oxo-N-methyl-N-(2-piperidin-1-ylethyl)-spiro[cyclohexane-1,1′-(3′H)-isobenzofuran]-4-carboxamide], the IC50 amounted to 0.08 nM and the “inhibition of the bond of N-alpha-methylhistamine (histamine analog) to a histamine H3 receptor” value was “strongly inhibited”.
As to `CN(CCN1CCCCC1)C(=O)[C@H]1CC[C@@]2(CC1)OC(=O)c1cc(Oc3ccccn3)ccc12` [Example 68, trans-5′-(Pyridin-2-yloxy)-3′-oxo-N-methyl-N-(2-piperidin-1-ylethyl)-spiro[cyclohexane-1,1′-(3′H)-iso-benzofuran]-4-carboxamide], the IC50 stood at 0.67 nM and the “inhibition of the bond of N-alpha-methylhistamine (histamine analog) to a histamine H3 receptor” value is given as “strongly inhibited”.
